Drawing on the supplement of paper PMC10307832, this text covers relative viability for eight cell lines.

Assay in all cases: relative viability (nuclei count vs DMSO), 5 days (fraction); higher = more cells survive
Compound in the assay “TGX 221 + Linsitinib”: CC1=CN2C(=O)C=C(N=C2C(=C1)C(C)NC3=CC=CC=C3)N4CCOCC4 [TGX 221] + C[C@]1(O)C[C@@H](c2nc(-c3ccc4ccc(-c5ccccc5)nc4c3)c3c(N)nccn32)C1 [Linsitinib] (partner 1 µM)
The essentials: (§1)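 Relative viability divides the nuclei count in treated wells by that in vehicle wells. Lung cancer cell lines were seeded in 1536-well plates, dosed by pin tool the next day, and fixed and stained after 5 days in one step with final 0.05% Triton X-100, 1% formaldehyde and 1 ug/ml Hoechst. Dosing was a single drug or a fixed anchor-drug dose plus five library-drug doses (not always all listed) in √10 steps, and values are medians of duplicate plates imaged at 4×.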

Compound in assay [1]: O=C(CCCCCCNC(=O)c1cnc(N(c2ccccc2)c2ccccc2)nc1)NO [Ricolinostat] + CCNC(=O)c1noc(-c2cc(C(C)C)c(O)cc2O)c1-c1ccc(CN2CCOCC2)cc1 [Luminespib] (partner 0.01 µM)
The essentials:
as §1

Compound in the assay “Ricolinostat + OSI-027”: O=C(CCCCCCNC(=O)c1cnc(N(c2ccccc2)c2ccccc2)nc1)NO [Ricolinostat] + COc1cccc2cc(-c3nc([C@H]4CC[C@H](C(=O)O)CC4)n4ncnc(N)c34)[nH]c12 [OSI-027] (partner 0.5 µM)
The essentials: as §1

Compound in assay [2]: O=C(CCCCCCNC(=O)c1cnc(N(c2ccccc2)c2ccccc2)nc1)NO [Ricolinostat] + Nc1nc2[nH]cc(CCc3ccc(C(=O)N[C@@H](CCC(=O)O)C(=O)O)cc3)c2c(=O)[nH]1 [Pemetrexed] (partner 0.2 µM)
Put shortly: as §1

Consider NCI-H3122, for which the relative viability with TGX 221 + Linsitinib (first compound 0.08 µM) is 1.01; with TGX 221 + Linsitinib (first compound 0.253 µM) it was 1.05; in the assay with TGX 221 + Linsitinib (first compound 0.8 µM), 1; with TGX 221 + Linsitinib (first compound 2.53 µM), 1.02; in the assay with TGX 221 + Linsitinib (first compound 8 µM) it was 0.986; in assay [1] (first compound 0.08 µM), 0.0722. The relative viability in assay [1] (first compound 0.253 µM) came out at 0.0881; in assay [1] (first compound 0.8 µM) it was 0.105; in assay [1] (first compound 2.53 µM), 0.0921; with Ricolinostat + OSI-027 (first compound 0.253 µM), 0.992; with Ricolinostat + OSI-027 (first compound 0.8 µM), 0.99; with Ricolinostat + OSI-027 (first compound 2.53 µM), 1.06. Moreover, the relative viability is 0.18 in assay [2] (first compound 0.08 µM), 0.205 in assay [2] (first compound 0.253 µM), 0.207 in assay [2] (first compound 0.8 µM) and 0.198 in assay [2] (first compound 2.53 µM).
Turning to PC-3 [JPC-3], the relative viability came out at 0.963 with TGX 221 + Linsitinib (first compound 0.08 µM); 0.973 with TGX 221 + Linsitinib (first compound 0.253 µM); 0.997 in the assay with TGX 221 + Linsitinib (first compound 0.8 µM); 0.922 in the assay with TGX 221 + Linsitinib (first compound 2.53 µM); 0.918 with TGX 221 + Linsitinib (first compound 8 µM); 0.702 in assay [1] (first compound 0.253 µM). Moreover, the relative viability in assay [1] (first compound 0.8 µM) worked out at 0.764; in assay [1] (first compound 2.53 µM) it was 0.66; in the assay with Ricolinostat + OSI-027 (first compound 0.253 µM), 0.768; in the assay with Ricolinostat + OSI-027 (first compound 0.8 µM), 0.708; in the assay with Ricolinostat + OSI-027 (first compound 2.53 µM) it was 0.491; in assay [2] (first compound 0.08 µM) it was 0.845. The values for the relative viability in assay [2] (first compound 0.253 µM), in assay [2] (first compound 0.8 µM) and in assay [2] (first compound 2.53 µM) were 1.11, 0.738 and 1, respectively.
In the case of PC-14, the relative viability was determined as 0.95 in the assay with TGX 221 + Linsitinib (first compound 0.08 µM); 0.866 with TGX 221 + Linsitinib (first compound 0.253 µM); 0.898 in the assay with TGX 221 + Linsitinib (first compound 0.8 µM); 0.904 with TGX 221 + Linsitinib (first compound 2.53 µM); 0.874 in the assay with TGX 221 + Linsitinib (first compound 8 µM); 0.172 in assay [1] (first compound 0.253 µM). The relative viability in assay [1] (first compound 0.8 µM) was 0.177; in assay [1] (first compound 2.53 µM) it was 0.169; with Ricolinostat + OSI-027 (first compound 0.08 µM), 0.728; in the assay with Ricolinostat + OSI-027 (first compound 0.253 µM), 0.72; with Ricolinostat + OSI-027 (first compound 0.8 µM), 0.769; with Ricolinostat + OSI-027 (first compound 2.53 µM), 0.511. Further, the relative viability in assay [2] (first compound 0.08 µM) turned out to be 0.147; in assay [2] (first compound 0.253 µM), 0.139; in assay [2] (first compound 0.8 µM) it was 0.141; in assay [2] (first compound 2.53 µM), 0.195.
For RERF-LC-KJ, the relative viability with TGX 221 + Linsitinib (first compound 0.08 µM) was determined as 0.803; in the assay with TGX 221 + Linsitinib (first compound 0.253 µM), 0.845; with TGX 221 + Linsitinib (first compound 0.8 µM), 0.852; with TGX 221 + Linsitinib (first compound 2.53 µM), 0.721; with TGX 221 + Linsitinib (first compound 8 µM) it was 0.747; in assay [1] (first compound 0.08 µM), 1.31. The relative viability turned out to be 1.07 in assay [1] (first compound 0.253 µM); 1.16 in assay [1] (first compound 0.8 µM); 0.809 in assay [1] (first compound 2.53 µM); 0.578 with Ricolinostat + OSI-027 (first compound 0.08 µM); 0.569 with Ricolinostat + OSI-027 (first compound 0.253 µM); 0.47 in the assay with Ricolinostat + OSI-027 (first compound 0.8 µM). The relative viability was 0.438 with Ricolinostat + OSI-027 (first compound 2.53 µM); 0.492 in assay [2] (first compound 0.08 µM); 0.427 in assay [2] (first compound 0.253 µM); 0.447 in assay [2] (first compound 0.8 µM); 0.374 in assay [2] (first compound 2.53 µM).
With SK-LU-1, the relative viability with TGX 221 + Linsitinib (first compound 0.08 µM) came to 0.96; with TGX 221 + Linsitinib (first compound 0.253 µM), 0.904; with TGX 221 + Linsitinib (first compound 0.8 µM), 0.922; with TGX 221 + Linsitinib (first compound 2.53 µM), 1.06; in the assay with TGX 221 + Linsitinib (first compound 8 µM), 0.858; in assay [1] (first compound 0.08 µM), 0.199. Further, the relative viability in assay [1] (first compound 0.253 µM) turned out to be 0.204; in assay [1] (first compound 0.8 µM) it was 0.212; in assay [1] (first compound 2.53 µM), 0.223; in the assay with Ricolinostat + OSI-027 (first compound 0.08 µM) it was 0.321; in the assay with Ricolinostat + OSI-027 (first compound 0.253 µM) it was 0.431; in the assay with Ricolinostat + OSI-027 (first compound 0.8 µM), 0.353. Further, the relative viability with Ricolinostat + OSI-027 (first compound 2.53 µM) turned out to be 0.269; in assay [2] (first compound 0.08 µM) it was 1.06; in assay [2] (first compound 0.253 µM), 0.97; in assay [2] (first compound 0.8 µM), 0.949; in assay [2] (first compound 2.53 µM), 0.864.
In the case of SK-MES-1, the relative viability stood at 1.05 with TGX 221 + Linsitinib (first compound 0.08 µM); 1.03 with TGX 221 + Linsitinib (first compound 0.253 µM); 1.03 with TGX 221 + Linsitinib (first compound 0.8 µM); 0.913 with TGX 221 + Linsitinib (first compound 2.53 µM); 0.573 in the assay with TGX 221 + Linsitinib (first compound 8 µM); 0.84 in assay [1] (first compound 0.08 µM). Also, the relative viability came out at 0.865 in assay [1] (first compound 0.253 µM); 0.609 in assay [1] (first compound 0.8 µM); 0.757 in assay [1] (first compound 2.53 µM); 0.407 in the assay with Ricolinostat + OSI-027 (first compound 0.08 µM); 0.561 with Ricolinostat + OSI-027 (first compound 0.253 µM); 0.534 with Ricolinostat + OSI-027 (first compound 0.8 µM). For the same cell line, the relative viability came to 0.558 with Ricolinostat + OSI-027 (first compound 2.53 µM); 0.878 in assay [2] (first compound 0.08 µM); 0.982 in assay [2] (first compound 0.253 µM); 0.876 in assay [2] (first compound 0.8 µM); 0.91 in assay [2] (first compound 2.53 µM).
Consider SW 1573, for which the relative viability in the assay with TGX 221 + Linsitinib (first compound 0.08 µM) is 0.686; with TGX 221 + Linsitinib (first compound 0.253 µM) it was 0.747; with TGX 221 + Linsitinib (first compound 0.8 µM), 0.685; in the assay with TGX 221 + Linsitinib (first compound 2.53 µM), 0.768; with TGX 221 + Linsitinib (first compound 8 µM), 0.544; in assay [1] (first compound 0.08 µM), 0.389. The relative viability is 0.214 in assay [1] (first compound 0.253 µM); 0.144 in assay [1] (first compound 0.8 µM); 0.154 in assay [1] (first compound 2.53 µM); 0.588 with Ricolinostat + OSI-027 (first compound 0.08 µM); 0.612 with Ricolinostat + OSI-027 (first compound 0.253 µM); 0.647 with Ricolinostat + OSI-027 (first compound 0.8 µM). Besides, the relative viability with Ricolinostat + OSI-027 (first compound 2.53 µM) was determined as 0.501; in assay [2] (first compound 0.08 µM) it was 0.857; in assay [2] (first compound 0.253 µM) it was 0.742; in assay [2] (first compound 0.8 µM), 1.07; in assay [2] (first compound 2.53 µM) it was 0.864.
With UMC-11, the relative viability with TGX 221 + Linsitinib (first compound 0.08 µM) worked out at 0.966; with TGX 221 + Linsitinib (first compound 0.253 µM), 0.979; in the assay with TGX 221 + Linsitinib (first compound 0.8 µM), 1.13; in the assay with TGX 221 + Linsitinib (first compound 2.53 µM) it was 0.987; with TGX 221 + Linsitinib (first compound 8 µM), 1.04; in assay [1] (first compound 0.08 µM) it was 0.985. Further, the relative viability in assay [1] (first compound 0.253 µM) came out at 1.02; in assay [1] (first compound 0.8 µM), 0.964; in assay [1] (first compound 2.53 µM), 0.684; in the assay with Ricolinostat + OSI-027 (first compound 0.08 µM), 0.406; with Ricolinostat + OSI-027 (first compound 0.253 µM) it was 0.517; in the assay with Ricolinostat + OSI-027 (first compound 0.8 µM), 0.487. Moreover, the relative viability in the assay with Ricolinostat + OSI-027 (first compound 2.53 µM) stood at 0.235; in assay [2] (first compound 0.08 µM) it was 0.751; in assay [2] (first compound 0.253 µM), 0.767; in assay [2] (first compound 0.8 µM) it was 0.728; in assay [2] (first compound 2.53 µM) it was 0.374.
